# In patent US20100285959A1, “HERBICIDAL MIXTURES” (priority 2006, published 2010):
# Tests used:
# [1] = tested on: Pennsylvania smartweed (POLPY); assay: Test 26 field trial, postemergence; assay type: in vivo, Polygonum pensylvanicum
# From the text: (§1) Corn seeds (hybrid ‘Pioneer 31G96’) were planted in mid spring season, 3.8 cm deep in a silt loam soil having 2% organic matter and a pH of 6.6. Plots were 6.1 m long by 3.0 m wide with rows spaced 76 cm apart. Seeds were spaced 15 cm apart within the rows. The field was managed using conventional tillage practices. […] All treatments also included a surfactant. […] Some of the weed species could not be evaluated at every timing. […] Results are the means of the three replicates.
# corn (ZEAMD) [2] = assay: Test 31 field trial, corn hybrids at V4 growth stage; assay type: in vivo, Zea mays ssp. indentata; conditions: postemergence, 14 DAA; for 34A15 Obs: corn hybrid 34A15; for 34N43 Obs: corn hybrid 34N43; for 35D28 Obs: corn hybrid 35D28; for 3730 Obs: corn hybrid 3730
# From the text: Corn seeds of hybrids Pioneer ‘34A15’, ‘34N43’, ‘35D28’, and ‘3730’ were planted in mid-spring season, approximately 3.8 cm deep in a sandy loam soil having 3.8% organic matter and a pH of 6.5. Plots were 9.1 m long by 3.0 m wide with rows spaced 76 cm apart. Seeds were spaced approximately 18 cm apart within the rows. The field was managed using conventional tillage practices. Plots were arranged with hybrid as the main block and herbicide treatments randomized within each block. Treatments were applied to corn in the V4 growth stage using a backpack sprayer delivering a spray volume of 131 L/ha with a pressure of 221 kPa. Treatments consisted of Compound 2 alone and in combination with a premix formulation of foramsulfuron and isoxadifen-ethyl, dissolved or suspended in water containing the spray adjuvants ammonium sulfate, applied at 1 kg/Ha, and methylated seed oil, applied at 1% vol/vol. Effects on the treated corn plants and untreated controls were recorded 14 days after application.
# velvetleaf (ABUTH) = assay: Test 17 greenhouse, post- and preemergence; assay type: in vivo, Abutilon theophrasti; conditions: 12 DAA
# From the text: Plants were watered as needed.
# corn (ZEAMD) [3] = assay: Test 26 field trial, postemergence; assay type: in vivo, Zea mays ssp. indentata; design: scale not given here
# From the text: as §1
# field pennycress (THLAR) = assay: Test 4 field trial, postemergence; assay type: in vivo, Thlaspi arvense; design: scale not given here
# Protocol: A field trial was conducted to evaluate the effects of mixtures of Compound 2 with commercial herbicides on spring wheat (TRZAS, Triticum aestivum L.) and several weed species. Wheat seeds (cv. ‘AC Intrepid’) were planted in late spring season, 3.8 cm deep in a loam soil having 2.7% organic matter and a pH of 7. Plots were 6 m long by 2.5 m wide. The field was managed using no-till practices. The plots were arranged in a randomized complete block design with each treatment being replicated four times. Treatments were applied postemergence 25 days after planting using a backpack sprayer delivering a spray volume of 55 L/ha using a pressure of 276 kPa. […] Compound 2 and clodinafop treatments, alone and in combination, also included a surfactant. Weed species present in the experimental plots in sufficient quantity to be evaluated included wild oat (AVEFA, Avena fatua L.), common lambsquarters (CHEAL, Chenopodium album L.), kochia (KCHSC, Kochia scoparia (L.) Schrad.), wild buckwheat (POLCO, Polygonum convolvulus L.), Russian thistle (SASKR, Salsola kali L. ssp. ruthenica (Iljin) Soo), and field pennycress (THLAR, Thlaspi arvense L.). […] Common lambsquarters was evaluated only at 14 days after application. […] Results are the means of the four replicates.
# rice (ORYSA) = assay: Test 32 greenhouse, simulated flooded rice culture; assay type: in vivo, Oryza sativa; conditions: postemergence to flood, 21 DAA
# Protocol: A greenhouse trial was conducted to evaluate the effects of Compound 1 and isoxadifen-ethyl at different ratios in simulated flooded rice culture. Plastic pots (11-cm diameter) were partially filled with non-sterilized Tama silt loam soil containing a 15:57:28 ratio of sand, silt and clay and 2.9% organic matter. Seeds of Heteranthera limosa (ducksalad; HETLI), Cyperus difformis (smallflower umbrella sedge; CYPDI), one stand of Echinochloa crus-galli (barnyardgrass; ECHCG), and one stand of four rice seedlings (Oryza sativa cv. ‘M202’; ORYSA) were planted into a single 11-cm diameter pot for each rate and mixture of rates. To obtain this planting, C. difformis and H. limosa seeds were planted separately on the surface soil layer at particular locations within each pot. Water levels were brought to a puddled condition above the soil surface directly after planting. E. crus-galli and rice seeds were planted in cavity trays in the silt loam soil and transplanted at the 1.5 and 2.0 leaf stage, respectively. E. crus-galli and rice plants were transplanted to about 2-cm depth by transferring plugs from the cavity trays. Plantings were sequential so that these plant species all reached the 2.0- to 2.5-leaf stage in the 11-cm diameter pot at time of treatment. Plantings were established and maintained in a greenhouse with day and night temperatures of about 29.5 and 26.7° C. respectively; supplemental balanced lighting was provided to maintain a 16-hour photoperiod. Pots were fertilized periodically with a 200 ppm solution of commercial Scotts Peters® Professional® General Purpose 20-20-20 Water Soluble Fertilizer, amended to 10 ppm with a commercial iron-chelate micronutrient fertilizer. The solution was supplied at time of watering via a liquid fertilizer injector.
# At treatment time, test pots were flooded to 3 cm above the soil surface and maintained at that water depth for the duration of the test. Chemical treatments were formulated in acetone and applied directly to the paddy water (i.e., postemergence to flood). Make-up volumes of acetone were added to ensure that all pots were treated with a consistent volume. Test pots were maintained in the greenhouse. A randomized complete block design was employed. Five replicates of each treatment, alone and in mixture, were used. Each species was visually evaluated for treatment effects by comparing those treated to untreated controls and rated for plant response after 21 days.
smiles,measurement,setting,value
"COC(=O)c1nc(C2CC2)nc(N)c1Cl [Compound 2, methyl 6-amino-5-chloro-2-cyclopropyl-4-pyrimidinecarboxylate]",POLPY Obs,"[1]; 14 DAA, 60 g a.i./ha",100
same,POLPY Obs,"[1]; 28 DAA, 30 g a.i./ha",20
same,POLPY Obs,"[1]; 28 DAA, 45 g a.i./ha",62
same,POLPY Obs,"[1]; 28 DAA, 60 g a.i./ha",75
same,34A15 Obs,corn (ZEAMD) [2]; Cpd 2 30 g a.i./ha,25
same,34A15 Obs,corn (ZEAMD) [2]; Cpd 2 60 g a.i./ha,30
same,34N43 Obs,corn (ZEAMD) [2]; Cpd 2 30 g a.i./ha,15%
same,34N43 Obs,corn (ZEAMD) [2]; Cpd 2 60 g a.i./ha,20%
same,35D28 Obs,corn (ZEAMD) [2]; Cpd 2 30 g a.i./ha,60
same,35D28 Obs,corn (ZEAMD) [2]; Cpd 2 60 g a.i./ha,65
same,3730 Obs,corn (ZEAMD) [2]; Cpd 2 30 g a.i./ha,60
same,3730 Obs,corn (ZEAMD) [2]; Cpd 2 60 g a.i./ha,75
same,"Obs response, scale 0 to 100","velvetleaf (ABUTH); Postemergence, 15 g a.i./ha",29
same,"Obs response, scale 0 to 100","velvetleaf (ABUTH); Postemergence, 30 g a.i./ha",30
same,"Obs response, scale 0 to 100","velvetleaf (ABUTH); Postemergence, 45 g a.i./ha",45
same,"Obs response, scale 0 to 100","velvetleaf (ABUTH); Preemergence, 15 g a.i./ha",10
same,"Obs response, scale 0 to 100","velvetleaf (ABUTH); Preemergence, 30 g a.i./ha",24
same,"Obs response, scale 0 to 100","velvetleaf (ABUTH); Preemergence, 45 g a.i./ha",45
same,ZEAMD Obs,"corn (ZEAMD) [3]; 14 DAA, 30 g a.i./ha",0
same,ZEAMD Obs,"corn (ZEAMD) [3]; 14 DAA, 45 g a.i./ha",2
same,ZEAMD Obs,"corn (ZEAMD) [3]; 14 DAA, 60 g a.i./ha",7
same,ZEAMD Obs,"corn (ZEAMD) [3]; 28 DAA, 30 g a.i./ha",2
same,ZEAMD Obs,"corn (ZEAMD) [3]; 28 DAA, 45 g a.i./ha",3
same,ZEAMD Obs,"corn (ZEAMD) [3]; 28 DAA, 60 g a.i./ha",5
same,ZEAMD Obs,"corn (ZEAMD) [3]; 56 DAA, 30 g a.i./ha",0
same,ZEAMD Obs,"corn (ZEAMD) [3]; 56 DAA, 45 g a.i./ha",0
same,ZEAMD Obs,"corn (ZEAMD) [3]; 56 DAA, 60 g a.i./ha",7
same,THLAR Obs,"field pennycress (THLAR); 14 DAA, Cpd 2 30 g a.i./ha alone or with fenoxaprop 90",0
same,THLAR Obs,"field pennycress (THLAR); 14 DAA, Cpd 2 60 g a.i./ha alone or with clodinafop 56 or fenoxaprop 90",0
same,THLAR Obs,"field pennycress (THLAR); 35 DAA, Cpd 2 30 g a.i./ha alone or with clodinafop 56 or fenoxaprop 90",0
same,THLAR Obs,"field pennycress (THLAR); 35 DAA, Cpd 2 60 g a.i./ha alone or with fenoxaprop 90",8
"Nc1nc(C2CC2)nc(C(=O)O)c1Cl [Compound 1, 6-amino-5-chloro-2-cyclopropyl-4-pyrimidinecarboxylic acid]",ORYSA Obs,rice (ORYSA); Cpd 1 31.25 g a.i./ha,9%
same,ORYSA Obs,rice (ORYSA); Cpd 1 62.5 g a.i./ha,15%
same,ORYSA Obs,rice (ORYSA); Cpd 1 125 g a.i./ha,27%
